Experimental data reported in patent publication US6635620B1, “Hydroxyproline derivatives” (Japan Bioproducts Ind. Co., Ltd., priority 1998, dated 2003).

Tested on: BHK-21 cells
Experiment: BHK-21 cell proliferation (cell growth) activity
Type: cell-based, hamster
Conditions: 3 days culture, compared with medium control
Description: Cell growth activities of the samples were measured as BHK (baby hamster kidney) −21 cell proliferation activity, following the known method (Planta Med., 62,115-118,1996, and others). In detail, BHK-21 cells (1×10^4) were cultured in Eagle's minimum essential medium supplemented with 5% fetal bovine serum and 2 mM glutamine, for 3 days at 37° C. with different concentration (μg/ml) of test samples in 5% CO2/air at pH 7.2. The cells were treated with a mixture of trypsin and 0.02% EDTA solution to detach the cells from each well. The cells were harvested and the numbers of total viable cells were counted. The viability of the cells was determined by the method of dye-exclusion test using 0.4% trypan blue solution. The cell growth activity (%) was determined by comparing with the control cells (medium control).

Which cell growth activity does the source give for `O=C1NC(CO)C(=O)N2C[C@H](O)CC12` (stereo partly shown) [Compound 2, 3′-Hydroxymethyl-4-hydroxypyrrolido [1,2-f] 2′, 5′-piperazinedione] here?
The cell growth activity was “showed the cell growth activity”.
